Measured values from patent publication US20260250318A1, “COMPOSITIONS AND METHODS FOR CROSSING THE BLOOD BRAIN BARRIER” (VOYAGER THERAPEUTICS, INC., priority 2022, published 2026).

Legend:
brain = experiment: Matured TTM-001 and TTM-002 variants, NGS enrichment in mouse brain; type: in vivo, mice; conditions: relative to AAV9 control
[1] = test system: brains, heart, liver, muscle, and DRG of the NHPs; experiment: Maturation of TTM-001 and TTM-002 capsids, NGS enrichment in NHP tissues; type: in vivo; conditions: relative to AAV9 control
Procedure, shortened: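 Variants carry mutations within and flanking the loop IV peptide insert: positions 450–466 were triplet-randomized, while positions 449–466 received low-frequency point mutations. The combined pool went into two NHPs, and each peptide was scored by NGS enrichment ratio against AAV9.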

[2] = NGS fold-enrichment, mouse brain
[3] = NGS fold-enrichment of RNA, NHP brain
[4] = NGS fold-enrichment, NHP liver DNA
[5] = NGS fold-enrichment, NHP liver RNA
[6] = NGS fold-enrichment, NHP muscle
[7] = NGS fold-enrichment, brain of mice
[8] = NGS fold-enrichment, DRG of NHPs
[9] = NGS fold-enrichment, RNA, brain of NHPs
[10] = NGS fold-enrichment, heart of NHPs
[11] = NGS fold-enrichment, liver DNA of NHPs
[12] = NGS fold-enrichment, liver RNA of NHPs
[13] = NGS fold-enrichment, muscle of NHPs
[14] = NGS fold-enrichment of matured AAV capsid variants, NHP brain, RNA

Sequence	Fold Enrichment relative to AAV9, Brain (Mouse) (brain; [2]) [fold]	Fold Enrichment relative to AAV9, Brain (NHP) [1, 3] [fold]	Fold Enrichment relative to AAV9, DRG (NHP) ([1]; NGS fold-enrichment, NHP DRG) [fold]	Fold Enrichment relative to AAV9, Heart (NHP) ([1]; NGS fold-enrichment, NHP heart) [fold]	Fold Enrichment relative to AAV9, Liver DNA (NHP) [1, 4] [fold]	Fold Enrichment relative to AAV9, Liver RNA (NHP) [1, 5] [fold]	Fold Enrichment relative to AAV9, Muscle (NHP) [1, 6] [fold]	Fold Enrichment relative to AAV9, Brain (Mouse) (brain; [7]) [fold]	Fold Enrichment relative to AAV9, DRG (NHP) [1, 8] [fold]	Fold Enrichment relative to AAV9, Brain (NHP) [1, 9] [fold]	Fold Enrichment relative to AAV9, Heart (NHP) [1, 10] [fold]	Fold Enrichment relative to AAV9, Liver DNA (NHP) [1, 11] [fold]	Fold Enrichment relative to AAV9, Liver RNA (NHP) [1, 12] [fold]	Fold Enrichment relative to AAV9, Muscle (NHP) [1, 13] [fold]	Fold Enrichment relative to AAV9, Brain (Mouse) (brain; mouse brain) [fold]	Fold Enrichment relative to AAV9, Brain (NHP) [1, 14] [fold]	Fold Enrichment relative to AAV9, DRG (NHP) ([1]; NHP DRG) [fold]	Fold Enrichment relative to AAV9, Heart (NHP) ([1]; NHP heart) [fold]	Fold Enrichment relative to AAV9, Liver DNA (NHP) ([1]; NHP liver, DNA) [fold]	Fold Enrichment relative to AAV9, Liver RNA (NHP) ([1]; NHP liver, RNA) [fold]	other results
KNVVGHDSPHKSGQNQQT	8.077	75.330	0.000	0.024	0.049	0.063	0.000	–	–	–	–	–	–	–	–	–	–	–	–	–	–
KTINGGGSPHSKAQTQQI	54.199	92.345	0.000	0.000	0.023	0.000	0.000	54.199	0.000	92.345	0.000	0.023	0.000	0.000	–	–	–	–	–	–	–
KTINGSGSPHTKAQNPQS	–	–	–	–	–	–	–	62.508	0.000	72.594	0.000	0.130	0.000	0.000	–	–	–	–	–	–	–
KTINGSGSPHSKAQSAHT	–	–	–	–	–	–	–	–	–	–	–	–	–	–	79.498	51.569	0.068	0.070	0.249	0.589	Fold Enrichment relative to AAV9, Muscle (NHP) ([1]; NHP muscle): 0.000 fold
KTINGGGSPHSKAQNPQA	–	–	–	–	–	–	–	–	–	–	–	–	–	–	102.792	51.574	0.000	0.000	0.000	0.192	Fold Enrichment relative to AAV9, Muscle (NHP) ([1]; NHP muscle): 0.000 fold
KTDRTSGSPHSKAQNQQT	–	–	–	–	–	–	–	–	–	–	–	–	–	–	148.498	56.466	0.000	0.000	0.160	0.062	Fold Enrichment relative to AAV9, Muscle (NHP) ([1]; NHP muscle): 0.000 fold
KTINGSGSPHSKAQKQQD	–	–	–	–	–	–	–	110.196	0.000	70.116	0.024	0.083	0.064	0.000	–	–	–	–	–	–	–
KTNNGHDSPHKSVQNQHT	7.934	115.172	0.000	0.083	0.062	0.000	0.000	–	–	–	–	–	–	–	–	–	–	–	–	–	–
